Experimental data published in PubChem BioAssay AID179 (DTP/NCI, 2004).
pEC50, pIC50: −log10 of the molar value. Activity calls are given as the source filed them.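 The calls were made as follows: active = compounds giving half or more protection of infected cells from virus-caused growth loss, again on retest; inactive = the rest.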 *1 amine or outer side, *2 acyl side, *3 side chain or, on linkers, in order; H or OH if unused. Where a SMILES comes first, the peptide text is derived from it. [ ]: non-standard residue; d: D form. X21 = NC(=O)CCC(CN[*:1])C(=O)[*:2]

Tested on: CEM cells HIV-1 protection, formazan growth assay
Assay: NCI AIDS Antiviral Assay
Conditions: for pIC50: measured here: growth of uninfected CEM cells
In short: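 Human CEM cells, uninfected and HIV-1-infected, received five drug concentrations, and growth was read by soluble formazan assay. Compounds giving at least 50% protection were retested; reproducible 100% protection defined confirmed active.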

SMILES	outcome	pEC50	pIC50
CC(=O)c1cccc(C(C)=O)c1N=Cc1ccccc1	inactive	–	–
CN1C(=O)C(C(C)(C)C2SC(=S)N(C)C2=O)SC1=S (centres undefined)	–	< 3.70	< 3.70
C1CNCCNCCNCCN1	inactive	–	–
N#Cc1c(-c2ccc([N+](=O)[O-])cc2)c(=O)oc2cc(O)ccc12	–	< 4.00	4.13
COC(=O)CN1Cc2cc(C)cc(c2O)CN(CC(=O)OC)Cc2cc(C)cc(c2O)CN(CC(=O)OC)Cc2cc(C)cc(c2O)C1	–	< 3.70	4.71
O=C(O)c1cc(N=Cc2cc(O)ccc2O)ccc1O	–	< 3.74	4.64
O=C(NN1C(=O)c2ccccc2C1=O)c1ccccc1Nc1ccccc1C(=O)NN1C(=O)c2ccccc2C1=O	–	< 3.70	< 3.70
CN(C)c1ccc(C=C2C(=O)OC(C)(C)OC2=O)cc1Br	–	< 4.55	< 4.55
O=[N+]([O-])c1ccc(N=Nc2ccc3c(c2)-c2ccccc2C3=P(c2ccccc2)(c2ccccc2)c2ccccc2)cc1	–	< 3.70	4.48
CC(C)(C)c1ccc(O)c(C(c2ccc([N+](=O)[O-])cc2)c2cc(C(C)(C)C)ccc2O)c1	–	< 3.70	5.45
O=[N+]([O-])c1ncn(C2OC(CO)C(O)C2O)c1S (centres undefined)	–	< 3.70	< 3.70
O=C1C=CC(=O)c2c1ccc1c2[nH]c2ccccc21	inactive	–	–
COc1cc2c(cc1OC)-c1cc3cc(OC)c(OC)cc3n1CC2	–	< 5.37	5.62
O=c1c2ccccc2c2cc3ccc4c(=O)c5ccccc5c5cc6ccc1c2c6c3c45	–	< 3.70	< 3.70
COCN1C(=O)[C@@H]2CCCN2C(=O)c2cc(Cl)ccc21	–	< 3.70	< 3.70
Cc1sc2ncnc(N)c2c1C	–	< 3.56	< 3.56
Clc1ccc(CCN2CCOCC2)c(Cl)c1	–	< 4.20	< 4.20
NC(=O)CNC(=O)c1ccccc1SC(=O)CCCCC[n+]1ccccc1	–	5.85	4.42
Cc1c(S(=O)(=O)c2ccccc2)c(N)n(Cc2ccccc2)c1C	–	< 3.70	4.13
c1ccc2c(c1)CN1CCCC1CN2 (centres undefined)	–	< 3.70	< 3.70
CCOC(=O)N1N=NC2C3OC(C[C@@]3(C#N)OC(C)=O)[C@H]21 (some centres undefined)	inactive	–	–

SMILES	outcome	pEC50	pIC50
Cc1cc(-c2ccc(C(=O)C(c3ccccc3)(c3ccccc3)c3ccccc3)[nH]2)on1	–	< 3.70	4.73
CC1(C)C(=O)C2(OS(=O)(=O)C(F)(F)F)CCC1C2 (centres undefined)	–	< 3.70	< 3.70
COC(=O)NCC(OC(=O)c1cc2c(cc1I)OCO2)C1=CCCCC1 (centres undefined)	–	< 4.54	< 4.54
COc1ccc(/C=C2\CCC(C)C3=C2NC(=S)NC3c2ccc(OC)c(OC)c2)cc1OC (centres undefined)	–	< 3.70	4.95
Cn1ccnc1Sc1c([N+](=O)[O-])ncn1C	–	< 2.98	5.10
O=c1n(-c2ccccc2)c(=O)n2n1C1C3C4C5C1C5C2C43 (centres undefined)	–	< 3.70	< 3.70
COc1cc(C2SCC(=O)N2NC(=O)c2ccc(NC(C)=O)cc2)cc(OC)c1OC (centres undefined)	–	< 4.23	< 4.23
CCSc1nc(N)c2c(-c3ccc(OC)c(OC)c3)c3c(nc2n1)CCCC3	–	< 3.70	< 3.70
Cc1ccccc1Nc1nc(NNC(=O)Cc2ccccc2)nc(NNC(=O)c2ccncc2)n1	–	3.81	3.39
CCC(C)C(NC(=O)C(CCC(N)=O)NC(=O)C1CCCN1)C(=O)NC(C(=O)NC(CC(C)C)C(=O)NC(Cc1c[nH]c2ccccc12)C(=O)NCC(CCC(N)=O)C(=O)NC(CCCN=C(N)N)C(=O)N1CCCC1C(=O)NC(CC(C)C)C(=O)O)C(C)O (centres undefined) (H-PQITLW[X21]RPL-OH; configuration not given here)	inactive	–	–
c1ccc2c(c1)SCCCSCCCS2	–	< 4.55	< 4.55
CN1C(=O)C2C=C3CCCCC3=CC2N(C)C1=O (centres undefined)	–	< 3.70	< 3.70
Cn1c(=O)c2/c(n(C)c1=O)=N\C=c1\c(=O)n(C)c(=O)n(C)\c1=N\C=2	–	< 3.74	< 3.74
CC(=O)Nc1ccc(C2C(C(=O)Nc3ccccc3)=C(C)NC(C)=C2C(=O)Nc2ccccc2)cc1	–	< 4.13	< 4.13
CC(C)CC(NC(=O)C(CO)NC(=O)C(CCCCN)NC(=O)C(CCCCN)NC(=O)C(NC(=O)CNC(=O)C(C)NC(=O)C(CCCN=C(N)N)NC(=O)C(NC(=O)C(N)C(C)C)C(C)C)C(C)C)C(=O)O (centres undefined) (H-VVRAGVKKSL-OH; configuration not given here)	inactive	–	–
O=P(O)(O)CN1CCNCCN(CP(=O)(O)O)CC1	–	< 4.00	4.15
COC(=O)C1=C(C(=O)OC)C2(c3ccccc3)c3ccccc3C(=O)C1N2C1CCCCC1 (centres undefined)	–	< 3.70	4.78
NCC(SSC(CN)C(=O)O)C(=O)O (centres undefined)	–	< 3.70	< 3.70
N#Cc1nc(-c2ccccc2C(=O)O)oc1N	inactive	–	–
CCN1C(=O)C(N=[N+]=[N-])(c2ccccc2)C(=O)c2ccccc21 (centres undefined)	–	< 3.70	< 3.70
CCC(c1ccccc1)c1noc(CCN(CC)CC)n1 (centres undefined)	–	< 3.70	4.47

SMILES	outcome	pEC50	pIC50
CCSc1n/c(=C\c2ccco2)c2nncn12	–	< 4.00	< 4.00
N#Cc1n[nH]n(C2CCCCC2)c1=O	–	< 3.70	< 3.70
CCOC(=O)c1noc(Oc2ccc(Cl)cc2Cl)n1	–	< 4.35	4.60
O=C1NC(O)c2c(F)cccc2O1 (centres undefined)	–	< 3.70	3.88
O=C(O)CCSC(=O)Nc1ccc([N+](=O)[O-])cc1	inactive	–	–
CN(C)CCNC(=O)Cn1ccc(=O)c2c([N+](=O)[O-])cccc21	–	< 3.70	< 3.70
Cn1c([N+](=O)[O-])cnc1CSc1ccc(C#N)cc1	–	3.93	< 3.70
N#Cc1nc(/C=C/c2cccs2)oc1N	–	< 3.70	3.97
CC1=C(O)C(=O)C(C)=C(O)C1=O	–	< 3.29	5.03
C=C1N(C=O)C(C)(C)N(O)C1(C)C	–	< 3.70	< 3.70
CC1OC(OC2C(OC(=O)[C@]34CCC(C)(C)CC3C3=CCC5[C@@]6(C)C[C@H](O)[C@H](OC7OC(CO)C(O)C(O)C7N)[C@@](C)(C(=O)O)C6CC[C@@]5(C)C3(C)CC4)OCC(O)C2O)C(O)C(O)C1OC1OCC(O)C(O)C1O (some centres undefined)	–	< 3.91	< 3.91
COC(=O)C1Cc2c([nH]c3ccccc23)-c2[nH]c3ccccc3c2CC(NC(C)=O)C(=O)NCC(=O)N1 (centres undefined)	–	< 3.70	< 3.70
CCOC(=O)C1CC(C(=O)OCC)(c2ccccc2)CCC1=O (centres undefined)	–	< 4.23	4.32
O=c1[nH]c2cc3c(cc2n2cccc12)oc1ccccc13	–	< 3.70	< 3.70
CCCC(=O)N[C@H]1C2C3CC4C5CC(C42)C1(C)C53 (some centres undefined)	–	< 3.56	< 3.56
O=C1c2ccccc2C(=O)c2c(NCCNC(=O)C3CCCN3)ccc(NCCNC(=O)C3CCCN3)c21 (centres undefined)	–	< 3.82	4.65
COC(=O)c1ccc2n1C1CC3CC(CC2C3)C1	–	< 3.70	4.06
O=C(Cc1ccc([N+](=O)[O-])cc1)OCC#CCOC(=O)Cc1ccc([N+](=O)[O-])cc1	–	< 3.70	< 3.70
NNC(=S)N/N=C(\c1nc2ccc(Cl)cc2[nH]c1=O)C(O)c1ccc(Cl)cc1Cl (centres undefined)	–	< 3.28	4.01
